Test results: the CheMixHub ionic liquid set

Assay: xn = mol fraction of the nth substance listed

CCCCn1cc[n+](C)c1C.O=S(=O)([N-]S(=O)(=O)C(F)(F)F)C(F)(F)F + CC1COC(=O)O1
101.3 kPa
Conditions	viscosity [mPa·s]
288.15 K, x1 = 0.6989	76.5
293.15 K, x1 = 0.0902	4.602
293.15 K, x1 = 0.6034	43.21
298.15 K, x1 = 0.4039	16.99
303.15 K, x1 = 0.193	5.92
303.15 K, x1 = 0.4996	20.52
303.15 K, x1 = 0.8107	50
303.15 K, x1 = 1	78.6
308.15 K, x1 = 0.193	5.23
308.15 K, x1 = 0.8107	40.47
313.15 K, x1 = 0.0902	2.96
313.15 K, x1 = 0.4039	10.52
313.15 K, x1 = 1	50.1
318.15 K, x1 = 0.193	4.177
318.15 K, x1 = 0.2934	6.16
318.15 K, x1 = 0.4996	13.02
318.15 K, x1 = 0.8107	27.72
318.15 K, x1 = 1	41.04
328.15 K, x1 = 0.0902	2.263
333.15 K, x1 = 0.8107	17.54
333.15 K, x1 = 1	24.25
338.15 K, x1 = 0.2934	4.026
338.15 K, x1 = 0.4996	7.4
343.15 K, x1 = 0.4996	6.47
343.15 K, x1 = 0.6034	8.56

CCCCCCCCCCCCCC[P+](CCCCCC)(CCCCCC)CCCCCC.O=[N+]([O-])c1c[n-]cn1 + COCCOCCOCCOCCOC
viscosity [mPa·s], 100 kPa
Conditions	278.15 K	283.15 K	303.15 K
x2 = 0.189	1503	1036	–
x2 = 0.404	–	–	107

CCCCCCCCn1cc[n+](C)c1.N[C@@H](CCC(=O)O)C(=O)[O-] + O
298.15 K, 100 kPa
Conditions	electrical conductivity [S/m]
x1 = 0.001637	0.28
x1 = 0.002301	0.358
x1 = 0.002857	0.426
x1 = 0.003573	0.518
x1 = 0.004181	0.593
x1 = 0.004913	0.651
x1 = 0.005822	0.708
x1 = 0.006748	0.759
x1 = 0.008079	0.835
x1 = 0.008965	0.89
x1 = 0.01029	0.928
x1 = 0.01145	0.926

[N-]=C=S.[NH4+] + CC[n+]1ccn(C)c1.N#C[S-]
100 kPa
Conditions	electrical conductivity [S/m]	viscosity [mPa·s]
313.15 K, x1 = 0.039	3.12	16.11
318.15 K, x1 = 0.039	–	14.28
318.15 K, x1 = 0.1395	3.28	16.71
323.15 K, x1 = 0.1395	3.71	14.61
328.15 K, x1 = 0.039	–	11.19
333.15 K, x1 = 0.099	–	10.92
343.15 K, x1 = 0.1395	–	9.2
348.15 K, x1 = 0.099	–	8.08
353.15 K, x1 = 0.099	–	7.28
353.15 K, x1 = 0.1395	–	7.48

O=S(=O)([N-]S(=O)(=O)C(F)(F)F)C(F)(F)F.[Li+] + COC(=O)OC + CCC(=O)OC
Conditions	viscosity [mPa·s]
298.15 K, 100 kPa, x1 = 0.333, x2 = 0.667	53.7

OCCO + CC[n+]1ccn(C)c1.O=C([O-])C(F)(F)F
100 kPa, x1 = 1
Conditions	viscosity [mPa·s]
293.15 K	20.8
298.15 K	16.8
303.15 K	13.8
313.15 K	9.52

O=S(=O)([N-]S(=O)(=O)C(F)(F)F)C(F)(F)F.[Li+] + CCCC[N+]1(C)CCCC1.O=S(=O)([N-]S(=O)(=O)C(F)(F)F)C(F)(F)F + O
viscosity [mPa·s], 100 kPa
Conditions	293.15 K	298.15 K	303.15 K	313.15 K	323.15 K	333.15 K	343.15 K	353.15 K	363.15 K
x1 = 0.2745, x2 = 0.2745	117	85.1	66.1	43	29.5	20.8	15.8	11.9	9.38
x1 = 0.3106, x2 = 0.2745	144	110	85.8	52.2	34.6	24.4	17.9	13.6	10.6
x1 = 0.3509, x2 = 0.2745	242	179	135	82.5	49.1	33.5	23.9	17.7	13.6
x1 = 0.3868, x2 = 0.2745	437	334	246	141	87.5	52.3	35.9	25.8	19.3
x1 = 0.4308, x2 = 0.2745	599	421	304	171	104	62.1	42	29.9	21.5

CCCC[n+]1ccn(C)c1.CS(=O)(=O)[O-] + CCCC[n+]1ccn(C)c1.[Cl-]
Conditions	viscosity [mPa·s]
353.15 K, 102 kPa, x1 = 0.2	98

CCCCn1cc[n+](C)c1C.O=S(=O)([N-]S(=O)(=O)C(F)(F)F)C(F)(F)F + CC[N+](C)(CC)CCOC.O=S(=O)([N-]S(=O)(=O)C(F)(F)F)C(F)(F)F
100 kPa, x2 = 0
Conditions	electrical conductivity [S/m]
298.15 K	0.237
308.15 K	0.379
323.15 K	0.665
328.15 K	0.777
